Where no end group is shown, it is not given here.
Tested on: C57BL/6 mice
Experiment: Evaluation of hair growth promoting activity by in vivo method (transition from telogen to anagen on shaved back)
Details: 0.2 ml of 0.15mg/ml solution in 50% ethanol/PBS on shaved back, once a day, 5 days in a week, until 38th day
Description: C3H and C57BL/6 mice are known to have sustained telogen for about 50 days from the 45th day after the birth to around the 95th day. Their hair cycle is easily judged based on the skin color changes, i.e., from pink in telogen to gray or black in anagen. A test for evaluating whether or not the administration the oligopeptides of the present invention promotes the transition from telogen to anagen was carried out using the mice. Seven weeks old (48 to 50-day old, female) C57BL/6 mice were purchased and hair of the back (about 3×2.5 cm^2) was carefully shaved with electric clippers for animals so as not to injure the skin, and the hair cycle was confirmed to be in telogen from the skin color. The oligopeptide solution prepared above was applied to five mice in each group, once a day and 5 days in a week in the amount of 0.2 ml until 38th day from the start of the test. The application was carried out by using a syringe without needle. […]
Plural persons (two persons) observed the mice twice a week by naked eye for evaluation, and gave a 6-graded score depending on a ratio of hair restoration area based on the hair shaved area. […] Hair growth scores were calculated as follows. […] The sum of the above scores in each group was determined as the hair growth score. […]

SIEQSCDQDE [oligopeptide comprising murine pep7 region]
hair restoration / hair growth promoting activity (hair growth score versus control group): has hair growth promoting activity
